Data taken from ChEMBL document CHEMBL1158836, “Cytotoxic sesquiterpenes from Aplysia dactylomela” (J Nat Prod, 2005).
Starred links: 1 amine or outer side, 2 acyl side, 3 side chain; linkers in the order of their positions; H or OH if unused. Positions of bridges follow the written chain, without caps; N, C: chain ends. Non-standard residues stand in square brackets, D forms with d. Residues, ends and D or L forms follow the SMILES beside them. Chains are numbered I, II in the order given. Actinocin(1to9) = Cc1c2oc3c(C)ccc(C(=O)[*:2])c3nc-2c(C(=O)[*:1])c(N)c1=O; NMeV = CN[C@H](C(=O)O)C(C)C; Sar = CNCC(=O)O

Columns and labels:
[1] = test system: HeLa; assay: Cytotoxicity against human HeLa cells in lag-phase after 48 hrs by MTT assay; assay type: functional, cell-based
[2] = test system: Vero; assay: Cytotoxicity against african green monkey Vero cells in log-phase after 48 hrs by MTT assay; assay type: cell-based; settings: Chlorocebus sabaeus
[3] = test system: HEp-2; assay: Cytotoxicity against human Hep2 cells in lag-phase after 48 hrs by MTT assay; assay type: functional, cell-based; settings: HEp-2, 48 h
[4] = test system: HEp-2; assay: Cytotoxicity against human Hep2 cells in log-phase after 48 hrs by MTT assay; assay type: functional, cell-based; settings: HEp-2, 48 h
[5] = test system: HeLa; assay: Cytotoxicity against human HeLa cells in log-phase after 48 hrs by MTT assay; assay type: functional, cell-based
[6] = test system: Vero; assay: Cytotoxicity against african green monkey Vero cells in lag-phase after 48 hrs by MTT assay; assay type: cell-based; settings: Chlorocebus sabaeus

Row | SMILES | IC50 [1] | IC50 [2] | IC50 [3] | IC50 [4] | IC50 [5] | IC50 [6]
1 | C=C1C[C@H](OC(C)=O)[C@H](Br)C(C)(C)[C@]12CC=C(C)CC2 [ACETYLDESCHLOROELATOL] | > 58 µM | > 58 µM | > 58 µM | > 58 µM | > 58 µM | > 58 µM
2 | C=C1C[C@H](OC(C)=O)[C@H](Br)C(C)(C)[C@@]12CCC(C)=C(Cl)C2 [ACETYLELATOL] | 50.3 µM | 44.6 µM | 28 µM | 22.4 µM | 13.7 µM | > 53 µM
3 | Cc1c2oc3c(C)ccc(C(=O)N[C@@H]4C(=O)N[C@H](C(C)C)C(=O)N5CCC[C@H]5C(=O)N(C)CC(=O)N(C)[C@@H](C(C)C)C(=O)O[C@@H]4C)c3nc-2c(C(=O)N[C@@H]2C(=O)N[C@H](C(C)C)C(=O)N3CCC[C@H]3C(=O)N(C)CC(=O)N(C)[C@@H](C(C)C)C(=O)O[C@@H]2C)c(N)c1=O [DACTINOMYCIN] (I: T[dV]P[Sar][NMeV] / II: T[dV]P[Sar][NMeV]; ester I:1-I:C, II:1-II:C; linker I:N-II:N via Actinocin(1to9)) | 0.011 µM | 0.001 µM | 0.191 µM | 0.006 µM | 0.001 µM | 0.071 µM
4 | C=C1C[C@H](O)[C@H](Br)C(C)(C)[C@]12CC=C(C)CC2 [DESCHLOROELATOL] | > 67 µM | > 67 µM | > 67 µM | > 67 µM | > 67 µM | > 67 µM
5 | CC(=O)O[C@@H]1C[C@@H](Br)C(C)(C)O[C@]1(C)[C@H]1CC[C@](C)(Cl)[C@@H](Br)C1 | > 42 µM | 33.6 µM | > 42 µM | > 42 µM | > 42 µM | 31.9 µM
6 | C=C1C[C@H](O)[C@H](Br)C(C)(C)[C@@]12CCC(C)=C(Cl)C2 [ELATOL] | 4.1 µM | 25 µM | 2.4 µM | 2 µM | 1.3 µM | 2.3 µM
7 | CC1(C)O[C@](C)([C@H]2CC[C@](C)(Cl)[C@@H](Br)C2)[C@H](O)C[C@H]1Br [CAESPITOL] | 26.9 µM | 25.8 µM | > 46 µM | > 46 µM | 30.6 µM | 25.5 µM
